Results reported in patent US20260297035A1, “PROTEIN KINASE INHIBITORS AND USES THEREOF” (DELiver Therapeutics, Inc., priority 2023, published 2026).
Like-named read-outs stand apart in the source and are kept apart here.

Key:
ABL1(wt) = ABL1(wt) (Homo sapiens, UniProt P00519); assay: Z′-LYTE assay (labeled peptide cleavage), ABL1(wt); assay type: biochemical
Excerpt: (§1) This Example describes a cell-free assay utilized to identify candidate compounds that bind to and inhibit protein kinase (PK) and PK variants. One assay is referred to as a “Z′-LYTE assay” and is an example of a labeled peptide cleavage assay. The fluorescence-based assay relies on the differential sensitivity of a small, dual-end-labelled peptide to cleavage by a protease, dependent on the phosphorylation state of the peptide (FIG. 1). The peptide substrate is end-labelled with two distinct fluorophores that comprise a Fluorescence Resonance Energy Transfer (FRET) pair.
(§2) In the absence of inhibitor, the kinase transfers the gamma-phosphate from ATP to the single, unique tyrosine, serine or threonine in the synthetic FRET peptide. The reaction conditions are titrated such that 10-40% of the peptide substrate is phosphorylated. In a second reaction, a site-specific protease that only recognizes and cleaves the non-phosphorylated FRET peptide is added. Cleavage interferes with FRET between the donor (i.e., coumarin) and the acceptor (i.e., fluorescein) fluorophores on the FRET-peptide substrate, unlike the phosphorylated, uncleaved peptide.
(§3) The Test Compounds are screened in 1% DMSO (final) in the well.
(§4) All Peptide/Kinase Mixtures are diluted to a 2× working concentration in the appropriate Kinase Buffer. The 2×ABL1 polypeptide/Tyr 02 substrate peptide mixture is prepared in 50 mM HEPES pH 7.5, 0.01% BRIJ-35, 10 mM MgCl2, 1 mM EGTA. The final 10 μL Kinase Reaction contains 0.3-1.2 ng ABL1 (or 1.36-6 ng ABL1(T315I)) and 2 μM Tyr 02 in 50 mM HEPES, pH 7.5, 0.01% BRIJ-35, 10 mM MgCl2, 1 mM EGTA. After the 1-hour Kinase Reaction incubation, 5 μL of a 1:128 dilution of Development Reagent A is added. The ABL1(wt) polypeptide utilized for the assay described in this Example was the “isoahABL1(wt)” polypeptide described herein (SEQ ID NO:4), which is referred to as “ABL1” in Table 1 and “ABL1(wt)” or “WT” in Table 3 of this Example. The ABL1 variant polypeptides utilized contained the same polypeptide as the “isoahABL1(wt)” polypeptide except that each contained one corresponding amino acid substitution chosen from E255K, F317I, F317L, G250E, T315I or Y253F. […]
(§5) All ATP Solutions are diluted to a 4× working concentration in Kinase Buffer (50 mM HEPES, pH 7.5, 0.01% BRIJ-35, 10 mM MgCl2, 1 mM EGTA). The ATP Km apparent (Km app) is previously determined using a Z′-LYTE assay.
(§6) Bar-coded Corning, low volume NBS, black 384-well plate (Corning Cat. #4514) • 1. […] Read on fluorescence plate reader and analyze the data
A known inhibitor control standard curve, 10-point titration, is run for each individual kinase on the same plate as the kinase to ensure the kinase is inhibited within an expected IC50 range previously determined. […]

ABL1 T315I = molecular target: T1, ABL1 T315I (Homo sapiens, UniProt P00519, T315I); assay: Z′-LYTE assay, ABL1 T315I; assay type: biochemical
T1 construct: The ABL1 variant polypeptides utilized contained the same polypeptide as the “isoahABL1(wt)” polypeptide except that each contained one corresponding amino acid substitution
Excerpt: as §1, §2, §3, §4, §5, §6

K562 = assay: In vitro cytotoxic activity (CellTiterGlo), K562 (CML); assay type: cell-based; settings: Homo sapiens, 48-hours, read-out: K562 LD50
Experimental: (§7) Non-metabolized targeted toxicity, or general toxicity, of compounds was assessed by treating a panel of selected cell lines in culture with a dilution series of test compounds and the lethal dose that will kill half of the cells (i.e., the LD50) was determined. Compounds herein were assayed against a panel of cytokine-independent Philadelphia chromosome (BCR-ABL1 translocation) positive (Ph+) leukemia and lymphoma cell lines along with several control cell lines that were ABL1-independent. The panel included murine cell lines BaF3-wildtype (wt), BaF3-mutants (BaF3-wt cells engineered to be reliant on various kinase domain mutations with the BCR-ABL1 fusion protein), and various ALL and CML human cell lines, including SD-1, TOM-1, NALM-21, K562, Jeko-1, BV173, and KCL-22.
(§8) To test the cytotoxic activity of compounds herein, 1.6E4 cells were plated in 96-well plates at a final volume of 135 μL per well. Compounds were then added to the wells. In general, final concentrations of compounds started at a maximum concentration of […] and were diluted by half-log concentrations down to a final concentration of 0.316 nM. However, different cell lines required varying drug concentration ranges for optimal LD50 calculations. To create half-log dilutions, 40 mM DMSO solutions of compounds were diluted in half-log iterations to generate 400× starting concentration of compounds in DMSO. The 400× compound solutions were then diluted by 40-fold by adding 5 μL of 400× DMSO stock to 195 μL cell culture media, generating 10× drug concentrations in cell culture media. Then 15 μL of the 10× drug solutions were added to the 135 μL volume of cell suspension, resulting in 1× final drug concentrations with 0.25% DMSO in all wells. 48-hours after adding compounds, cells were measured for relative viability to generate cytotoxicity curves associated with the varying concentrations of compounds. […] LD50 values were measured by normalizing luminescence intensity to the lowest drug concentration. GraphPad Prism was used to plot and calculate LD50 values from the cytotoxic kill curves. Curves were fit to a non-linear regression model, with compound concentration vs. response and variable slope (four parameters).

NALM-21 = assay: In vitro cytotoxic activity (CellTiterGlo), NALM-21 (ALL); assay type: cell-based; settings: Homo sapiens; 48-hours; read-out: NALM-21 LD50
Experimental: as §7, §8

[1] = non-GLP multi-dose toxicity study (dose escalation, daily IP injection); assay type: in vivo, mouse (6-week-old Balb/c females); settings: mice; for tolerability: daily IP
Experimental: An initial non-GLP multi-dose toxicity study of Cmpd11 and Cmpd66 was performed, which included a comparison to COM1 and COM3 clinical compounds. […] Body weights were recorded 2× weekly for healthy mice followed by weekly in the recovery phase. Blood draws were taken, retro-orbitally, every other week (for a total of three blood draws per group) to determine the plasma levels of compounds throughout the duration of the study (unless mice were euthanized prior to completion of the 28-day dosing period). […] Any animals showing more than 9% weight loss were weighed every day and animals were euthanized after a weight loss of 15% or more or evidence of high distress (e.g., listless, hunched posture, high grimace score). Also, plasma samples were drawn at euthanasia. Control groups included vehicle only and no manipulation.
A summary of the study is illustrated in FIG. 14. There are six groups with 90 mice total and following is an overview of groups for the study.
The following are criteria for dose escalation and staggering of group starting points. Animals in each group are monitored after the initial dose for 3-4 days, and if there is no observed dose-limiting toxicity (DLT), then a separate cohort of naïve animals are administered the next higher dose level. Note that each cohort of animals receives the same drug and drug dose for the duration of the 28-day dosing period unless euthanasia is required. Animals in the second, dose-escalated group, are then monitored for 3-4 days, and if there is no observed DLT, animals from a fresh cohort are administered the next higher dose level, while continuing with the former cohorts up to 5 dose levels total. Animals in each cohort then are monitored after the third dose for 7 days, and if there is no observed DLT, then animals are administered the next higher doses. If DLT is observed during a monitoring period for any dose level, a subsequent dose is reduced by a level that is intermediate between the highest tolerated level tested and the minimum toxic level tested.

Row | Compound | IC50 (K562) [nM] | IC50 (NALM-21) [nM] | also measured
1 | CNC(=O)c1ccc(C(=O)Nc2cc(Nc3ncc4cccc(-c5ccc(F)cc5OC(C)C)c4n3)ccc2C)cc1 [Cmpd10] |  |  | IC50 (ABL1(wt); class by IC50 values in Table 5, read-out: inhibitor class of ABL1(wt) according to IC50): < 20 nM; IC50 (ABL1(wt); test compounds, Z′-LYTE, read-out: IC50 values for test compounds, ABL1(wt)): 11.2 nM; IC50 (ABL1 T315I; class by IC50 values in Table 5, read-out: inhibitor class of ABL(T315I) according to IC50): < 20 nM; IC50 (ABL1 T315I; test compounds, Z′-LYTE, read-out: IC50 values for test compounds, ABL1(T315I)): 3.86 nM
2 | Cc1ccc(Nc2ncc3cccc(-c4ccc(F)cc4OC(C)C)c3n2)cc1NC(=O)c1ccc(C(=O)N2CCN(C)CC2)cc1 [Cmpd44, N-(5-((8-(4-fluoro-2-isopropoxyphenyl)quinazolin-2-yl)amino)-2-methylphenyl)-4-(4-methylpiperazine-1-carbonyl)benzamide] | 300 | 281 | 
3 | Cc1ccc(Nc2ncc3cccc(-c4ccc(F)cc4OC(C)C)c3n2)cc1NC(=O)CN1CCN(C)CC1 [Cmpd58, N-(5-((8-(4-fluoro-2-isopropoxyphenyl)quinazolin-2-yl)amino)-2-methylphenyl)-2-(4-methylpiperazin-1-yl)acetamide] | 124 | 134 | 
4 | Cc1ccc(Nc2ncc3cccc(-c4ccc(F)cc4OC(C)C)c3n2)cc1NC(=O)C1CCN(C)CC1 [Cmpd66, N-(5-((8-(4-fluoro-2-isopropoxyphenyl)quinazolin-2-yl)amino)-2-methylphenyl)-1-methylpiperidine-4-carboxamide] | 141 | 133 | tolerability relative to COM1 ([1]; at doses required to reach the in vitro K562-Luc EC50 plasma levels in vivo, early results): more tolerable than COM1; tolerability ([1]; 1.5 mg/kg, through day 24): well tolerated; tolerability ([1]; 4.5 mg/kg, at day 21): well tolerated; tolerability ([1]; maximum dose of 18 mg/kg, at day 14): well tolerated
5 | Cc1ccc(C(=O)Nc2ccc(CN3CCN(C)CC3)c(C(F)(F)F)c2)cc1C#Cc1cnc2cccnn12 [ponatinib] | 3250 | 3600 | 
